Experiments:
OGA = biological target: T1, OGA (Homo sapiens, UniProt O60502); assay: OGA cellular assay (ICC detection of O-GlcNAcylated proteins in HEK293 cells inducible for P301L mutant human Tau); format: cell-based; details: for Cellular Emax (%) / Emax: maximum defined by Thiamet G at 200 uM; for EC50: read-out: Cellular hOGA, pEC50 (converted); for Emax: HEK293, HEK293 cells inducible for P301L mutant human Tau
T1 construct: endogenous in cells; host or cells: HEK293 cells inducible for P301L mutant human Tau (isoform 2N4R)
T1 sequence (O60502 1-916): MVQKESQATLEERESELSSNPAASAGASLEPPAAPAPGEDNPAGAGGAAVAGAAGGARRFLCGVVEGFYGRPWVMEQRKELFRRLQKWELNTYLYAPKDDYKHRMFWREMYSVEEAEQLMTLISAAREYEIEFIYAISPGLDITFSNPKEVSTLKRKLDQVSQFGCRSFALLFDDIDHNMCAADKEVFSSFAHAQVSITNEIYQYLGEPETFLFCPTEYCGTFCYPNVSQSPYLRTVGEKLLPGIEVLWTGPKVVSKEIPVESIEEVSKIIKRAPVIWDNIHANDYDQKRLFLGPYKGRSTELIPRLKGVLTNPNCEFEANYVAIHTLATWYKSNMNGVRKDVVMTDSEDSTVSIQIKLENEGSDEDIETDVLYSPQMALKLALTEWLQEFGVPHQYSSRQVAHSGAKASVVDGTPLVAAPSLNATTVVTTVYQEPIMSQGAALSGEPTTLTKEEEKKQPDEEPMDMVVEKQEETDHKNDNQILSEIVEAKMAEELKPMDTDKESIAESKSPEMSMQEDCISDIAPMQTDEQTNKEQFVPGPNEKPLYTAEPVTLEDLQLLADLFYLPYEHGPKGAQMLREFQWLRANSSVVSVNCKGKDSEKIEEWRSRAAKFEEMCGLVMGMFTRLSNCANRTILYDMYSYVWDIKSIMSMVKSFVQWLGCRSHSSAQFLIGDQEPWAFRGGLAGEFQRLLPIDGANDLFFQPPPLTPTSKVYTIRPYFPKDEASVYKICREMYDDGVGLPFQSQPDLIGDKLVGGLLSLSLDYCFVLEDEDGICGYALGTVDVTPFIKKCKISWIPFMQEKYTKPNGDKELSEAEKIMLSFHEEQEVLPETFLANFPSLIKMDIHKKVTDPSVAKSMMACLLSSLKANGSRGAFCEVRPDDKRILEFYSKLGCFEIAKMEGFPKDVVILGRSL
Experimental: HEK293 cells inducible for P301L mutant human Tau (isoform 2N4R) were established at Janssen. Thiamet-G was used for both plate validation (high control) and as reference compound (reference EC50 assay validation). OGA inhibition is evaluated through the immunocytochemical (ICC) detection of O-GlcNAcylated proteins by the use of a monoclonal antibody (CTD110.6; Cell Signaling, #9875) detecting O-GlcNAcylated residues as previously described (Dorfmueller et al. 2010 Chemistry & biology, 17:1250). Inhibition of OGA will result in an increase of O-GlcNAcylated protein levels resulting in an increased signal in the experiment. Cell nuclei are stained with Hoechst to give a cell culture quality control and a rough estimate of immediate compounds toxicity, if any. ICC pictures are imaged with a Perkin Elmer Opera Phenix plate microscope and quantified with the provided software Perkin Elmer Harmony 4.1.
Cells were propagated in DMEM high Glucose (Sigma, #D5796) following standard procedures. 2 days before the cell assay cells are split, counted and seeded in Poly-D-Lysine (PDL) coated 96-wells (Greiner, #655946) plate at a cell density of 12,000 cells per cm^2 (4,000 cells per well) in 100 μl of Assay Medium (Low Glucose medium is used to reduce basal levels of GlcNAcylation) (Park et al. 2014 The Journal of biological chemistry 289:13519). At the day of compound test medium from assay plates was removed and replenished with 90 μl of fresh Assay Medium. 10 μl of compounds at a 10 fold final concentration were added to the wells. Plates were centrifuged shortly before incubation in the cell incubator for 6 hours. DMSO concentration was set to 0.2%. Medium is discarded by applying vacuum. For staining of cells medium was removed and cells washed once with 100 μl D-PBS (Sigma, #D8537). From next step onwards unless other stated assay volume was always 50 μl and incubation was performed without agitation and at room temperature. Cells were fixed in 50 μl of a 4% paraformaldehyde (PFA, Alpha aesar, #043368) PBS solution for 15 minutes at room temperature. […] Before analysis samples were washed 2 times manually for 5 minutes in ICC base buffer.
Imaging is performed using Perkin Elmer Phenix Opera using a water 20× objective and recording 9 fields per well. Intensity readout at 488 nm is used as a measure of O-GlcNAcylation level of total proteins in wells. To assess potential toxicity of compounds nuclei were counted using the Hoechst staining. IC50-values are calculated using parametric non-linear regression model fitting. As a maximum inhibition Thiamet G at a 200 uM concentration is present on each plate. In addition, a concentration response of Thiamet G is calculated on each plate.

[1] = biological target: T2, recombinant human Meningioma Expressed Antigen 5 (MGEA5), also referred to as O-GlcNAcase (OGA) (Homo sapiens, UniProt O60502); assay: OGA biochemical assay (inhibition of FM-GlcNAc hydrolysis, fluorescence); details: FM-GlcNAc substrate; for IC50: 6 h at room temperature, read-out: Enzymatic hOGA, pIC50 (converted); for Enzymatic Emax (%) / Emax: maximal effect; for Emax: read-out: Enzymatic Emax (%)
T2 construct: Full length OGA enzyme was purchased at OriGene (cat #TP322411); purchased OriGene TP322411
T2 sequence (O60502 1-916): T1 sequence (O60502 1-916)
How it was run: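 Full-length human OGA (2 nM) pre-incubated 60 min at room temperature with compound, then FM-GlcNAc (100 µM final) added in citrate/phosphate buffer pH 7.2 with 0.005% Tween-20; 6 h at room temperature, stopped with carbonate pH 11.0. Fluorescein read at 485/538 nm; IC50 and Hill coefficient from curve fit.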

[2] = HEK293 cells inducible for P301L mutant human Tau, 6 hours incubation, ICC O-GlcNAcylation
[3] = HEK293 cells inducible for P301L mutant human Tau

## Cc1cc(OC[C@]2(C)CCN([C@H](C)c3ccc4c(n3)OCCO4)C2)cc(C)n1 (single isomer, unassigned) [Product 103]
OGA; [2]
  Cellular hOGA; pEC50: <6
OGA; [3]
  Cellular Emax (%): −5%
[1]
  IC50: > 10000 nM
  Enzymatic Emax (%): 29%

## Cc1cc(C[C@@H]2CCN([C@H](C)c3ccc4c(n3)OCCO4)C2)cc(C)n1 (single isomer, unassigned) [Product 104]
OGA; [2]
  EC50: 631 nM
OGA; [3]
  Cellular Emax (%): 51%
[1]
  IC50: 63.1 nM
  Emax: 100%

## Cc1cc(C[C@@H]2CCN([C@H](C)c3ccc4c(n3)OCCO4)C2)cc(C)n1 (single isomer, unassigned) [Product 105]
OGA; [2]
  EC50: > 1000 nM
OGA; [3]
  Cellular Emax (%): 6%
[1]
  IC50: 794 nM
  Enzymatic Emax (%): 91%

## COc1cc(C[C@@H]2CCN([C@H](C)c3ccc4c(n3)OCCO4)C2)cc(C)n1 (single isomer, unassigned) [Product 106]
OGA; [3]
  Cellular Emax (%): 47%
[1]
  IC50: 79.4 nM
  Emax: 100%

## COc1cc(C[C@@H]2CCN([C@H](C)c3ccc4c(n3)OCCO4)C2)cc(C)n1 (single isomer, unassigned) [Product 107]
OGA; [2]
  EC50: > 1000 nM
OGA; [3]
  Cellular Emax (%): −6%
[1]
  IC50: 1260 nM
  Enzymatic Emax (%): 90%

## COc1cc(C[C@H]2CN([C@H](C)c3ccc4c(n3)OCCO4)C[C@@H]2C)cc(C)n1 (stereo in doubt) [Product 121]
OGA
  Emax: 47%
OGA; [2]
  EC50: > 1000 nM
[1]
  IC50: 50.1 nM
  Emax: 99%

## COc1cc(C[C@@H]2CN([C@H](C)c3ccc4c(n3)OCCO4)C[C@H]2C)cc(C)n1 (stereo in doubt) [Product 122]
OGA
  Emax: -7%
OGA; [2]
  EC50: > 1000 nM
[1]
  Emax: 49%

## COc1cc(C[C@H]2CN([C@@H](C)c3ccc4c(n3)OCCO4)C[C@@H]2C)cc(C)n1 (stereo in doubt) [Product 123]
OGA
  Emax: 47%
OGA; [2]
  EC50: ~1000 nM
[1]
  IC50: 126 nM
  Emax: 100%

## COc1cc(C[C@@H]2CN([C@@H](C)c3ccc4c(n3)OCCO4)C[C@H]2C)cc(C)n1 (stereo in doubt) [Product 124]
OGA
  Emax: -3%
OGA; [2]
  EC50: > 1000 nM
[1]
  IC50: > 10000 nM
  Emax: 40%

## Cc1cc(C[C@H]2CCN(C(C)c3ccc4c(n3)OCCO4)C2)cc(C(F)(F)F)n1 (some centres unmarked) [Product 5]
OGA
  Emax: 45%
[1]
  IC50: 126 nM
  Emax: 100%

## Cc1cc(C[C@H]2CCN(C(C)c3ccc4c(c3)OCC4)C2)cc(C(F)(F)F)n1 (some centres unmarked) [Product 6]
OGA
  Emax: 47%
OGA; [2]
  EC50: > 1000 nM
[1]
  IC50: 79.4 nM
  Emax: 103%

## Cc1cc(C[C@H]2CCN(C(C)c3cc4c(cc3F)OCCO4)C2)cc(C(F)(F)F)n1 (some centres unmarked) [Product 7]
OGA
  Emax: 79%
OGA; [2]
  EC50: 398 nM
[1]
  IC50: 20 nM
  Emax: 102%

## COc1cc(C[C@H]2CCN(C(C)c3ccc4c(c3)OCC4)C2)cc(C)n1 (some centres unmarked) [Product 8]
OGA
  Emax: 58%
OGA; [2]
  EC50: 794 nM
[1]
  IC50: 126 nM
  Emax: 101%

## COc1cc(C[C@H]2CCN(C(C)c3nc4c(cc3F)OCCO4)C2)cc(C)n1 (some centres unmarked) [Product 16]
OGA
  Emax: 89%
OGA; [2]
  EC50: 126 nM
[1]
  IC50: 20 nM
  Emax: 102%

## Cc1cc(O[C@@H]2CCN(C(C)c3nc4c(cc3F)CCO4)C2)cc(C)n1 (some centres unmarked) [Product 17]
OGA
  Emax: 77%
OGA; [2]
  EC50: 20 nM
[1]
  IC50: 2.51 nM
  Emax: 101%

## COc1cc(C[C@H]2CCN(C(C)c3cnc4c(c3)OCCN4)C2)cc(C)n1 (some centres unmarked) [Product 20]
OGA
  Emax: 61%
OGA; [2]
  EC50: 501 nM
[1]
  IC50: 79.4 nM
  Emax: 101%

## Cc1cc(C[C@H]2CCN([C@@H](C)c3cc4c(cc3F)OCCO4)C2)cc(C)n1 [Product 32]
OGA
  Emax: 72%
OGA; [2]
  EC50: 126 nM
[1]
  IC50: 15.8 nM
  Emax: 101%

## Cc1cc(C[C@@H]2CCN(C(C)c3ccc4c(n3)OCCO4)C2)nc(C)n1 (some centres unmarked) [Product 37]
OGA
  Emax: 14%
OGA; [2]
  EC50: > 1000 nM
[1]
  IC50: 251 nM
  Emax: 96%

## Cc1cc(O[C@@H]2CCN(C(C)c3nc4c(cc3F)OCCO4)C2)cc(C)n1 (some centres unmarked) [Product 38]
OGA
  Emax: 69%
OGA; [2]
  EC50: 316 nM
[1]
  IC50: 20 nM
  Emax: 98%

## Cc1cc(O[C@@H]2CCN(C(C)c3nc4c(cc3F)OCCO4)C2)cc(C)n1 (some centres unmarked) [Product 39]
OGA; [2]
  EC50: 251 nM
OGA; [3]
  Cellular Emax (%): 74%
[1]
  IC50: 10 nM
  Enzymatic Emax (%): 100%

## COc1cc(C[C@@H]2CCN([C@@H](C)c3cc4c(cc3F)OCCO4)C2)cc(C)n1 [Product 43]
OGA
  Emax: 68%
OGA; [2]
  EC50: 398 nM
[1]
  IC50: 15.8 nM
  Emax: 102%

## Cc1cc(C[C@@H]2CCN([C@@H](C)c3cc4c(cc3F)OCCO4)C2)cc(C)n1 [Product 45]
OGA
  Emax: 72%
OGA; [2]
  EC50: 100 nM
[1]
  IC50: 5.01 nM
  Emax: 101%

## Cc1cc(OC[C@H]2CCN(C(C)c3ccc4c(n3)OCCO4)C2)cc(C)n1 (some centres unmarked) [Product 47]
OGA
  Emax: 9%
OGA; [2]
  EC50: > 1000 nM
[1]
  IC50: 631 nM
  Emax: 97%

## COc1cc(OC[C@@H]2CCN(C(C)c3ccc4c(n3)OCCO4)C2)cc(C)n1 (some centres unmarked) [Product 48]
OGA
  Emax: 1%
OGA; [2]
  EC50: > 1000 nM
[1]
  IC50: 1000 nM
  Emax: 91%

## Cc1cc(CO[C@H]2CCN(C(C)c3ccc4c(n3)OCCO4)C2)cc(C)n1 (some centres unmarked) [Product 49]
OGA
  Emax: -5%
OGA; [2]
  EC50: > 1000 nM
[1]
  IC50: 5010 nM
  Emax: 70%

## Cc1cc(OC[C@@H]2CCN(C(C)c3nc4c(cc3F)OCCO4)C2)cc(C)n1 (some centres unmarked) [Product 50]
OGA
  Emax: 58%
OGA; [2]
  EC50: 631 nM
[1]
  IC50: 50.1 nM
  Emax: 100%

## CC(c1nc2c(cc1F)OCCO2)N1CC[C@@H](Oc2ccc(C#N)nn2)C1 (some centres unmarked) [Product 53]
OGA
  Emax: 43%
OGA; [2]
  EC50: > 1000 nM
[1]
  IC50: 63.1 nM
  Emax: 93%

## Cc1ccc(O[C@H]2CCN(C(C)c3ccc4c(n3)OCCO4)C2)cn1 (some centres unmarked) [Product 56]
OGA
  Emax: 8%
OGA; [2]
  EC50: > 1000 nM
[1]
  IC50: 2510 nM
  Emax: 83%

## Cc1ccc(O[C@H]2CCN(C(C)c3nc4c(cc3F)OCCO4)C2)cn1 (some centres unmarked) [Product 57]
OGA
  Emax: 33%
OGA; [2]
  EC50: > 1000 nM
[1]
  IC50: 316 nM
  Emax: 96%

Source: patent US20210277015A1, “OGA INHIBITOR COMPOUNDS” (Janssen Pharmaceutica NV, priority 2018, published 2021)
